Several values for one entry are separate records, joined by “and”; a condition that tells them apart may be missing. Identical values can stand only once.
Details: Liquid, Vibrating tube method

CCCCn1cc[n+](C)c1.O=S(=O)([O-])C(F)(F)F [1-butyl-3-methylimidazolium trifluoromethanesulfonate]
Details | mass density
283.14 K, 20345 kPa | 1320.61 kg/m3
283.15 K, 101 kPa | 1309.81 kg/m3 and 1309.8 kg/m3
283.15 K, 5337 kPa | 1312.37 kg/m3
283.15 K, 9906 kPa | 1315.03 kg/m3
283.15 K, 29997 kPa | 1325.6 kg/m3
283.15 K, 90097 kPa | 1353.37 kg/m3
283.15 K, 100086 kPa | 1357.13 kg/m3
283.15 K, 109957 kPa | 1361.36 kg/m3
283.15 K, 119997 kPa | 1365.53 kg/m3
283.15 K, 129993 kPa | 1369.54 kg/m3
283.15 K, 139996 kPa | 1373.39 kg/m3
283.16 K, 49996 kPa | 1335.42 kg/m3
283.16 K, 60363 kPa | 1340.27 kg/m3
283.16 K, 69993 kPa | 1344.64 kg/m3
283.16 K, 79621 kPa | 1348.88 kg/m3
283.17 K, 1225 kPa | 1310.35 kg/m3
283.17 K, 40094 kPa | 1330.63 kg/m3
288.15 K, 101 kPa | 1305.77 kg/m3
293.15 K, 101 kPa | 1301.75 kg/m3 and 1301.72 kg/m3
293.15 K, 9722 kPa | 1307 kg/m3
293.15 K, 20425 kPa | 1312.86 kg/m3
293.15 K, 29997 kPa | 1317.9 kg/m3
293.15 K, 49997 kPa | 1327.93 kg/m3
293.15 K, 69996 kPa | 1337.34 kg/m3
293.15 K, 89996 kPa | 1346.17 kg/m3
293.15 K, 109846 kPa | 1354.33 kg/m3
293.15 K, 119150 kPa | 1358.24 kg/m3
293.15 K, 129846 kPa | 1362.58 kg/m3
293.15 K, 138949 kPa | 1366.14 kg/m3
293.16 K, 40322 kPa | 1323.16 kg/m3
293.16 K, 60340 kPa | 1332.87 kg/m3
293.16 K, 100028 kPa | 1350.06 kg/m3
293.17 K, 80507 kPa | 1342.04 kg/m3
293.2 K, 1740 kPa | 1302.55 kg/m3
293.2 K, 4978 kPa | 1304.2 kg/m3
298.13 K, 30005 kPa | 1314.25 kg/m3
298.13 K, 90001 kPa | 1342.82 kg/m3
298.14 K, 59968 kPa | 1329.2 kg/m3
298.15 K, 101 kPa | 1297.74 kg/m3 and 1297.8 kg/m3
298.15 K, 1023 kPa | 1298.28 kg/m3
298.15 K, 10006 kPa | 1303.37 kg/m3
298.15 K, 19968 kPa | 1308.89 kg/m3
298.15 K, 40008 kPa | 1319.41 kg/m3
298.15 K, 49962 kPa | 1324.37 kg/m3
298.15 K, 70005 kPa | 1333.89 kg/m3
298.15 K, 79986 kPa | 1338.41 kg/m3
298.15 K, 99997 kPa | 1347.1 kg/m3
298.15 K, 109968 kPa | 1351.04 kg/m3
298.15 K, 120001 kPa | 1355.27 kg/m3
298.15 K, 139996 kPa | 1363.31 kg/m3
298.16 K, 5026 kPa | 1300.4 kg/m3
298.16 K, 130002 kPa | 1359.35 kg/m3
303.15 K, 101 kPa | 1293.74 kg/m3
313.13 K, 101 kPa | 1285.81 kg/m3
313.15 K, 101 kPa | 1285.7 kg/m3
313.15 K, 10395 kPa | 1291.48 kg/m3
313.15 K, 20326 kPa | 1296.92 kg/m3
313.15 K, 29996 kPa | 1302.11 kg/m3
313.15 K, 40009 kPa | 1307.36 kg/m3
313.15 K, 49994 kPa | 1312.48 kg/m3
313.15 K, 70102 kPa | 1322.42 kg/m3
313.15 K, 79871 kPa | 1327.08 kg/m3
313.15 K, 90021 kPa | 1331.79 kg/m3
313.15 K, 99922 kPa | 1336.27 kg/m3
313.15 K, 109826 kPa | 1340.63 kg/m3
313.15 K, 121633 kPa | 1345.69 kg/m3
313.15 K, 129825 kPa | 1349.1 kg/m3
313.15 K, 139153 kPa | 1352.88 kg/m3
313.16 K, 60130 kPa | 1317.55 kg/m3
313.2 K, 1097 kPa | 1286.27 kg/m3
313.2 K, 5364 kPa | 1288.67 kg/m3
333.09 K, 1557 kPa | 1270.96 kg/m3
333.1 K, 5234 kPa | 1273.19 kg/m3
333.11 K, 9847 kPa | 1275.96 kg/m3
333.14 K, 19578 kPa | 1281.68 kg/m3
333.15 K, 101 kPa | 1270.09 kg/m3 and 1270.06 kg/m3
333.15 K, 29996 kPa | 1287.62 kg/m3
333.15 K, 69992 kPa | 1308.75 kg/m3

— the NIST ThermoML archive (doi:10.1021/acs.jced.8b00837)
